Source: patent publication US6335350B1, “Acetamide and substituted acetamide-containing thiourea inhibitors of herpes viruses” (American Home Products Corporation, priority 1998, dated 2002)
In brackets after ≈: the same amount, converted by molar mass.

Key:
HCMV wild-type = assay: HCMV yield assay; assay type: cell-based, human cytomegalovirus; settings: human foreskin fibroblasts; for IC50: Human betaherpesvirus 5, Fibroblast, read-out: IC50 Ug/ml HCMV
Outline: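 Value is the compound amount cutting virus yield titer by 50% (IC50) or 90% (IC90). Human foreskin fibroblasts infected with wild-type HCMV (MOI typically 0.2) under varying compound; progeny harvested day 3, titered compound-free on fibroblasts, plaques scored at 2 weeks.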

VZV strain Ellen = assay: VZV Antiviral (ELISA) Assay; assay type: cell-based, varicella-zoster virus; settings: human foreskin fibroblast cells; for IC50 / inhibition at 10 µg/mL: Human alphaherpesvirus 3, Fibroblast; for IC50: read-out: IC50 Ug/ml VZV; for inhibition at 10 µg/mL: read-out: % inhibition 10 ug/ml VZV, 10 ug/ml
Outline: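 HFF cells infected with VZV Ellen at low multiplicity (<0.1) overnight were seeded at 3.5×10^4 cells/well in DMEM with 2% FBS plus compound and incubated three days at 37° C., 5% CO2. Viral replication was read by ELISA against glycoprotein II with β-galactosidase fluorogenic readout (ex 365/em 450 nm); IC50 relative to no-compound fluorescence.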

HSV-1 = assay: HSV Antiviral (ELISA) Assay; assay type: cell-based, herpes simplex virus type 1; settings: Vero cells, HSV-1; for IC50: Human alphaherpesvirus 1, Vero, read-out: IC50 Ug/ml HSV
Outline: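 Replication measured as glycoprotein D signal in fixed cells: anti-gD antibody plus β-galactosidase-linked secondary, fluorogenic substrate read at 365/450 nm. Vero cells (2% FBS DMEM) received compound 30 min pre-infection, HSV-1 MOI 0.006, ~24 h incubation; IC50 relative to no-compound fluorescence.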

Compound	IC50 (HCMV wild-type)	IC50 (VZV strain Ellen)	inhibition at 10 µg/mL (VZV strain Ellen)	IC50 (HSV-1)	IC50 Ug/ml HCMV (HCMV wild-type)	% inhibition 10 ug/ml VZV (VZV strain Ellen)	IC50 Ug/ml VZV (VZV strain Ellen)	IC50 Ug/ml HSV (HSV-1)
COc1cc(O)c(NC(=S)Nc2ccc(NC(C)=O)cc2)cc1Cl [Example 839, N-{4-[3-(5-Chloro-2-hydroxy-4-methoxy-phenyl)-thioureido]-phenyl}-acetamide]	15 µg/mL (≈ 41 µM)	> 10 µg/mL	17%	10 µg/mL (≈ 27.3 µM)				
CC(=O)Nc1ccc(NC(=S)Nc2cc(Cl)c(OCC(N)=O)c(Cl)c2)cc1 [Example 882, 2-{4-[3-(4-Acetylamino-phenyl)-thioureido]-2,6-dichloro-phenoxy}-acetamide]	> 50 µg/mL	> 10 µg/mL	15%	> 50 µg/mL				
C=Cc1ccc(NC(=S)Nc2ccc(NC(C)=O)cc2)cc1Cl [Example 377, N-{4-[3-(3-Chloro-4-vinyl-phenyl)-thioureido]-phenyl}-acetamide]	0.8 µg/mL (≈ 2.31 µM)	> 10 µg/mL	28%	3 µg/mL (≈ 8.67 µM)				
COc1cc(OC)c(NC(=S)Nc2ccc(NC(C)=O)c(Cl)c2)cc1Cl [Example 275, N-{2-Chloro-4-[3-(5-chloro-2,4-dimethoxy-phenyl)-thioureido]-phenyl}-acetamide]	> 10 µg/mL	> 10 µg/mL	32%	10 µg/mL (≈ 24.1 µM)				
COc1c(Cl)cc(NC(=S)Nc2ccc(NC(C)=O)cc2)cc1Cl [Example 109, N-{4-[3-(3,5-Dichloro-4-methoxy-phenyl)-thioureido]-phenyl}-acetamide]	0.4 µg/mL (≈ 1.04 µM)	> 10 µg/mL	27%	> 10 µg/mL				
COc1cc(OC)c(NC(=S)Nc2cc(C)c(NC(C)=O)cc2Cl)cc1Cl [Example 326, N-{5-Chloro-4-[3-(5-chloro-2,4-dimethoxy-phenyl)-thioureido]-2-methyl-phenyl}-acetamide]	> 10 µg/mL	> 10 µg/mL	19%	10 µg/mL (≈ 23.3 µM)				
CCCCOc1cc(OC)c(NC(=S)Nc2ccc(NC(C)=O)cc2)cc1Cl [Example 834, N-{4-[3-(4-Butoxy-5-chloro-2-methoxy-phenyl)-thioureido]-phenyl}-acetamide]	> 10 µg/mL	15 µg/mL (≈ 35.5 µM)	93%	10 µg/mL (≈ 23.7 µM)				
CC(=O)Nc1ccc(NC(=S)Nc2ccc(OC3CCN(C)C3)c(Cl)c2)cc1 (centres unmarked) [Example 334, N-(4-{3-[3-Chloro-4-(1-methyl-pyrrolidin-3-yloxy)-phenyl]-thioureido}-phenyl)-acetamide]	18 µg/mL (≈ 43 µM)	> 10 µg/mL	7%	35 µg/mL (≈ 83.5 µM)				
COc1cc(OC)c(NC(=S)Nc2ccc(NC(C)=O)cc2)cc1Br [Example 150, N-{4-[3-(5-Bromo-2,4-dimethoxy-phenyl)-thioureido]-phenyl}-acetamide]	40 µg/mL (≈ 94.3 µM)	> 10 µg/mL	3%	9 µg/mL (≈ 21.2 µM)				
COc1cc(OC)c(NC(=S)Nc2ccc(NC(C)=O)c(C)c2)cc1Cl [Example 309, N-{4-[3-(5-Chloro-2,4-dimethoxy-phenyl)-thioureido]-2-methyl-phenyl}-acetamide]	25 µg/mL (≈ 63.5 µM)	> 10 µg/mL	22%	8 µg/mL (≈ 20.3 µM)				
CC(=O)Nc1ccc(NC(=S)Nc2ccc(NC3CCCCC3)c(Cl)c2)cc1 [Example 299, N-{4-[3-(3-Chloro-4-cyclohexylamino-phenyl)-thioureido]-phenyl}-acetamide]	6 µg/mL (≈ 14.4 µM)	3.8 µg/mL (≈ 9.11 µM)	72%	> 10 µg/mL				
N-{4-[3-(4-Acetylamino-phenyl)-thioureido]-2-chloro-phenyl}-2-pyrrolidin-1-yl-acetamide [Example 415]					>10 Ug/ml	26%	4.5 Ug/ml	>10 Ug/ml
CC(=O)Nc1ccc(NC(=S)Nc2ccc(Oc3cc(Cl)c(Cl)cc3S(=O)(=O)O)c(Cl)c2)cc1 [Example 263, 2-{4-[3-(4-Acetylamino-phenyl)-thioureido]-2-chloro-phenoxy}-4,5-dichloro-benzensulfonic acid]	> 50 µg/mL	> 10 µg/mL	20%	> 50 µg/mL				
COc1c(C)cc(NC(=S)Nc2ccc(NC(C)=O)cc2)cc1Cl [Example 877, N-{4-[3-(3-Chloro-4-methoxy-5-methyl-phenyl)-thioureido]-phenyl}-acetamide]	2 µg/mL (≈ 5.5 µM)	> 10 µg/mL	15%	30 µg/mL (≈ 82.4 µM)				
COc1ccc(Cl)cc1NC(=S)Nc1ccc(NC(C)=O)cc1 [Example 107, N-{4-[3-(5-Chloro-2-methoxy-phenyl)-thioureido]-phenyl}-acetamide]	> 50 µg/mL	> 10 µg/mL	20%	> 50 µg/mL				
COc1ccc(Cl)c(NC(=S)Nc2ccc(NC(C)=O)cc2)c1 [Example 881, N-{4-[3-(2-Chloro-5-methoxy-phenyl)-thioureido]-phenyl}-acetamide]	> 50 µg/mL	> 10 µg/mL	12%	40 µg/mL (≈ 114 µM)				
COc1cc(N(C)C)c(NC(=S)Nc2ccc(NC(C)=O)cc2)cc1Cl [Example 227, N-{4-[3-(5-Chloro-2-dimethylamino-4-methoxy-phenyl)-thioureido]-phenyl}-acetamide]	> 50 µg/mL	> 10 µg/mL	32%	> 50 µg/mL				
CC(=O)Nc1ccc(NC(=S)Nc2ccc(OCc3ccccc3)c(Cl)c2)cc1 [Example 269, N-{4-[3-(4-Benzyloxy-3-chloro-phenyl)-thioureido]-phenyl}-acetamide]	5 µg/mL (≈ 11.7 µM)	> 10 µg/mL	38%	> 10 µg/mL				
COc1cc(O)c(Cl)cc1NC(=S)Nc1ccc(NC(C)=O)cc1 [Example 223, N-{4-[3-(5-Chloro-4-hydroxy-2-methoxy-phenyl)-thioureido]-phenyl}-acetamide]	> 50 µg/mL	> 10 µg/mL	24%	14 µg/mL (≈ 38.3 µM)				
CCN(CC)c1ccc(NC(=S)Nc2ccc(NC(C)=O)cc2)cc1Cl [Example 202, N-{4-[3-(3-Chloro-4-diethylamino-phenyl)-thioureido]-phenyl}-acetamide]	> 10 µg/mL	> 10 µg/mL	18%	3 µg/mL (≈ 7.67 µM)				
CC(=O)Nc1ccc(NC(=S)Nc2cc(Cl)c(Oc3ccccc3)c(Cl)c2)cc1 [Example 885, N-{4-[3-(3,5-Dichloro-4-phenoxy-phenyl)-thioureido]-phenyl}-acetamide]	> 10 µg/mL	> 10 µg/mL	45%	15 µg/mL (≈ 33.6 µM)				
COc1ccc(NC(=S)Nc2ccc(NC(C)=O)cc2)cc1 [Example 104, N-{4-[3-(4-Methoxy-phenyl)-thioureido]-phenyl}-acetamide]	> 50 µg/mL	> 10 µg/mL	8%	> 50 µg/mL				
CC(=O)Nc1ccc(NC(=S)Nc2ccc(NS(C)(=O)=O)c(Cl)c2)cc1 [Example 369, N-{4-[3-(3-Chloro-4-methanesulfonylamino-phenyl)-thioureido]-phenyl}-acetamide]	> 10 µg/mL	> 10 µg/mL	0%	> 10 µg/mL				
CC(=O)Nc1ccc(NC(=S)Nc2ccc(OCCN(C)C)c(Cl)c2)cc1 [Example 343, N-(4-{3-[3-Chloro-4-(2-dimethylamino-ethoxy)-phenyl]-thioureido}-phenyl)-acetamide]	40 µg/mL (≈ 98.3 µM)	> 10 µg/mL	38%	> 50 µg/mL				
COc1cc(OC)c(NC(=S)Nc2ccc(NC(C)=O)cc2C)cc1Cl [Example 297, N-{4-[3-(5-Chloro-2,4-dimethoxy-phenyl)-thioureido]-3-methyl-phenyl}-acetamide]	> 10 µg/mL	> 10 µg/mL	23%	1 µg/mL (≈ 2.54 µM)				
COc1cc(OCC#N)c(Cl)cc1NC(=S)Nc1ccc(NC(C)=O)cc1 [Example 212, N-(4-{3-[5-Chloro-2-methoxy-4-(2-nitrilo-ethoxy)-phenyl]-thioureido}-phenyl)-acetamide]	20 µg/mL (≈ 49.4 µM)	> 10 µg/mL	23%	> 50 µg/mL				
CC(=O)Nc1ccc(NC(=S)Nc2cccc(Cl)c2)cc1 [Example 816, N-{4-[3-(3-Chloro-phenyl)-thioureido]-phenyl}-acetamide]	25 µg/mL (≈ 78.2 µM)	> 10 µg/mL	30%	20 µg/mL (≈ 62.5 µM)				
CC(=O)Nc1ccc(NC(=S)Nc2ccc(OC3CCCCC3)c(Cl)c2)cc1 [Example 345, N-{4-[3-(3-Chloro-4-cyclohexyloxy-phenyl)-thioureido]-phenyl}-acetamide]	> 10 µg/mL	> 10 µg/mL	30%	> 10 µg/mL				
COc1c(NC(=S)Nc2ccc(NC(C)=O)cc2)cc(Cl)c(C)c1Cl [Example 152, N-{4-[3-(3,5-Dichloro-2-methoxy-4-methyl-phenyl)-thioureido]-phenyl}-acetamide]					0.8 Ug/ml	70%	7.5 Ug/ml	2 Ug/ml
